Reference: patent US11214803B2, “Modulators of YAP1 expression” (Ionis Pharmaceuticals, Inc., priority 2019, dated 2022)
Strand notation (5' to 3'): a small letter for the sugar, then the base; units joined by * are phosphorothioate-linked, units joined directly phosphodiester-linked; [ ] holds rarer units or linkages, { } end groups; capitals alone tell only the bases. k = constrained ethyl (cEt); [5mC] = 5-methylcytosine; d = 2'-deoxy (DNA)

Tested on: Yap1 mRNA
Assay: Dose-dependent inhibition of human Yap1 in A-431 cells (Example 7, 10,000 cells per well, RTS36584)
Type: cell-based
Details: free uptake
Protocol: Modified oligonucleotides described in the studies above were tested at various doses in A-431 cells. Cultured A-431 cells at a density of 10,000 cells per well were treated using free uptake with modified oligonucleotides diluted to concentrations described in the tables below. After approximately 48 hours, Yap1 mRNA levels were measured as previously described using the Human Yap1 primer-probe set RTS36584. Yap1 mRNA levels were normalized to total RNA content, as measured by RIBOGREEN®. Results are presented in the tables below as percent control of the amount of Yap1 mRNA relative to untreated control cells (% UTC). IC50s were calculated using a linear regression on a log/linear plot of the data in excel.

[1] = 15.6 nM, A-431 cells, 10,000 cells per well, approximately 48 hours
[2] = 62.5 nM, A-431 cells, 10,000 cells per well, approximately 48 hours
[3] = 4000.00 nM, A-431 cells, 10,000 cells per well, approximately 48 hours
[4] = A-431 cells, approximately 48 hours, linear regression on log/linear plot
[5] = Table 58, 15.6 nM, A-431 cells 10,000 cells per well, 48 hours
[6] = Table 58, 62.5 nM, A-431 cells 10,000 cells per well, 48 hours
[7] = Table 58, 4000.00 nM, A-431 cells 10,000 cells per well, 48 hours
[8] = Table 58, A-431 cells 10,000 cells per well
[9] = Table 60, 15.6 nM, A-431 cells 10,000 cells per well, 48 hours
[10] = Table 60, 62.5 nM, A-431 cells 10,000 cells per well, 48 hours
[11] = Table 60, 4000.00 nM, A-431 cells 10,000 cells per well, 48 hours
[12] = Table 60, A-431 cells 10,000 cells per well
[13] = Table 57, 15.6 nM, A-431 cells 10,000 cells per well, 48 hours
[14] = Table 57, 62.5 nM, A-431 cells 10,000 cells per well, 48 hours
[15] = Table 57, 4000.00 nM, A-431 cells 10,000 cells per well, 48 hours
[16] = Table 57, A-431 cells 10,000 cells per well
[17] = Table 59, 15.6 nM, A-431 cells 10,000 cells per well, 48 hours
[18] = Table 59, 62.5 nM, A-431 cells 10,000 cells per well, 48 hours
[19] = Table 59, 4000.00 nM, A-431 cells 10,000 cells per well, 48 hours
[20] = Table 59, A-431 cells 10,000 cells per well

“958535 (kG*kG*kG*dT*d[5mC]*dA*dA*dT*dT*dT*dT*d[5mC]*dA*kG*k[5mC]*kA; antisense) [compound 958535]” was tested, and the “Yap1 mRNA, % UTC” value [1] was 98 % UTC, the “Yap1 mRNA, % UTC” value [2] was 64 % UTC and the “Yap1 mRNA, % UTC” value [3] was 19 % UTC. The IC50 [4] was 200 nM.

In the case of “958536 (kA*kG*kG*dG*dT*d[5mC]*dA*dA*dT*dT*dT*dT*d[5mC]*kA*kG*k[5mC]; antisense) [compound 958536]”, the “Yap1 mRNA, % UTC” value (Table 56, 15.6 nM, A-431 cells 10,000 cells per well, 48 hours) is reported as 94 % UTC, the “Yap1 mRNA, % UTC” value (Table 56, 62.5 nM, A-431 cells 10,000 cells per well, 48 hours) is reported as 67 % UTC and the “Yap1 mRNA, % UTC” value (Table 56, 4000.00 nM, A-431 cells 10,000 cells per well, 48 hours) is reported as 16 % UTC. For the same substance, the IC50 (Table 56, A-431 cells 10,000 cells per well) was 140 nM.

With “958537 (k[5mC]*kA*kG*dG*dG*dT*d[5mC]*dA*dA*dT*dT*dT*dT*k[5mC]*kA*kG; antisense) [compound 958537]” the “Yap1 mRNA, % UTC” value [5] was 100 % UTC, the “Yap1 mRNA, % UTC” value [6] was 56 % UTC and the “Yap1 mRNA, % UTC” value [7] was 11 % UTC. For the same substance, the IC50 [8] was 100 nM.

In the case of “958538 (kA*kT*k[5mC]*d[5mC]*dA*dG*dG*dG*dT*d[5mC]*dA*dA*dT*kT*kT*kT; antisense) [compound 958538]”, the “Yap1 mRNA, % UTC” value [9] is reported as 101 % UTC, the “Yap1 mRNA, % UTC” value [10] is reported as 77 % UTC and the “Yap1 mRNA, % UTC” value [11] is reported as 30 % UTC. The IC50 [12] was 300 nM.

With “958541 (kG*kT*kA*dT*dT*d[5mC]*dT*dA*dT*d[5mC]*d[5mC]*dA*dG*kG*kG*kT; antisense) [compound 958541]” the “Yap1 mRNA, % UTC” value [13] was 81 % UTC, the “Yap1 mRNA, % UTC” value [14] was 51 % UTC and the “Yap1 mRNA, % UTC” value [15] was 9 % UTC. It also gave an IC50 [16] of 100 nM.

For “958542 (kT*kA*kT*dA*dG*dT*dA*dT*dT*d[5mC]*dT*dA*dT*k[5mC]*k[5mC]*kA; antisense) [compound 958542]”, the “Yap1 mRNA, % UTC” value [5] was 90 % UTC, the “Yap1 mRNA, % UTC” value [6] was 70 % UTC and the “Yap1 mRNA, % UTC” value [7] was 17 % UTC. It also gave an IC50 [8] of 100 nM.

For “958543 (kA*k[5mC]*k[5mC]*dT*dT*dA*dT*dA*dG*dT*dA*dT*dT*k[5mC]*kT*kA; antisense) [compound 958543]”, the “Yap1 mRNA, % UTC” value [9] was 84 % UTC, the “Yap1 mRNA, % UTC” value [10] was 63 % UTC and the “Yap1 mRNA, % UTC” value [11] was 18 % UTC. For the same substance, the IC50 [12] was 100 nM.

In the case of “958544 (kG*k[5mC]*kT*dA*dA*dA*dT*dT*d[5mC]*dA*dA*d[5mC]*dT*kA*k[5mC]*k[5mC]; antisense) [compound 958544]”, the “Yap1 mRNA, % UTC” value [1] is reported as 65 % UTC, the “Yap1 mRNA, % UTC” value [2] is reported as 77 % UTC and the “Yap1 mRNA, % UTC” value [3] is reported as 17 % UTC. The IC50 [4] was 100 nM.

For “958545 (kA*k[5mC]*kT*d[5mC]*dT*dA*dG*dT*dT*dA*d[5mC]*dA*dT*k[5mC]*kA*kT; antisense) [compound 958545]”, the “Yap1 mRNA, % UTC” value [1] was 75 % UTC, the “Yap1 mRNA, % UTC” value [2] was 50 % UTC and the “Yap1 mRNA, % UTC” value [3] was 8 % UTC. It also gave an IC50 [4] of 100 nM.

“958546 (k[5mC]*kA*kT*dA*d[5mC]*dT*d[5mC]*dT*dA*dG*dT*dT*dA*k[5mC]*kA*kT; antisense) [compound 958546]” was tested, and the “Yap1 mRNA, % UTC” value [13] was 91 % UTC, the “Yap1 mRNA, % UTC” value [14] was 72 % UTC and the “Yap1 mRNA, % UTC” value [15] was 22 % UTC. The IC50 [16] was 200 nM.

“958547 (k[5mC]*kA*k[5mC]*dA*dT*dA*d[5mC]*dT*d[5mC]*dT*dA*dG*dT*kT*kA*k[5mC]; antisense) [compound 958547]” was tested, and the “Yap1 mRNA, % UTC” value [5] was 98 % UTC, the “Yap1 mRNA, % UTC” value [6] was 74 % UTC and the “Yap1 mRNA, % UTC” value [7] was 22 % UTC. For the same substance, the IC50 [8] was 200 nM.

For “958549 (kT*kG*kT*dA*dG*dA*d[5mC]*dA*d[5mC]*dA*dT*dA*d[5mC]*kT*k[5mC]*kT; antisense) [compound 958549]”, the “Yap1 mRNA, % UTC” value [1] was 98 % UTC, the “Yap1 mRNA, % UTC” value [2] was 78 % UTC and the “Yap1 mRNA, % UTC” value [3] was 28 % UTC. It also gave an IC50 [4] of 300 nM.

In the case of “958550 (k[5mC]*k[5mC]*kT*dG*dT*dA*dG*dA*d[5mC]*dA*d[5mC]*dA*dT*kA*k[5mC]*kT; antisense) [compound 958550]”, the “Yap1 mRNA, % UTC” value [1] is reported as 91 % UTC, the “Yap1 mRNA, % UTC” value [2] is reported as 60 % UTC and the “Yap1 mRNA, % UTC” value [3] is reported as 10 % UTC. For the same substance, the IC50 [4] was 100 nM.

For “958551 (k[5mC]*kT*k[5mC]*d[5mC]*dT*dG*dT*dA*dG*dA*d[5mC]*dA*d[5mC]*kA*kT*kA; antisense) [compound 958551]”, the “Yap1 mRNA, % UTC” value [13] was 95 % UTC, the “Yap1 mRNA, % UTC” value [14] was 73 % UTC and the “Yap1 mRNA, % UTC” value [15] was 14 % UTC. It also gave an IC50 [16] of 200 nM.

For “958555 (kG*k[5mC]*kT*dT*dA*dT*dA*dT*dT*dG*dA*dA*dG*kA*kG*kT; antisense) [compound 958555]”, the “Yap1 mRNA, % UTC” value [1] was 99 % UTC, the “Yap1 mRNA, % UTC” value [2] was 73 % UTC and the “Yap1 mRNA, % UTC” value [3] was 13 % UTC. The IC50 [4] was 200 nM.

With “958556 (k[5mC]*kA*kA*d[5mC]*d[5mC]*dA*dA*d[5mC]*dT*dA*dT*dT*dA*k[5mC]*kT*kT; antisense) [compound 958556]” the “Yap1 mRNA, % UTC” value [13] was 103 % UTC, the “Yap1 mRNA, % UTC” value [14] was 95 % UTC and the “Yap1 mRNA, % UTC” value [15] was 34 % UTC. For the same substance, the IC50 [16] was 500 nM.

With “958558 (kT*kT*k[5mC]*dA*d[5mC]*dA*dA*d[5mC]*d[5mC]*dA*dA*d[5mC]*dT*kA*kT*kT; antisense) [compound 958558]” the “Yap1 mRNA, % UTC” value [9] was 84 % UTC, the “Yap1 mRNA, % UTC” value [10] was 83 % UTC and the “Yap1 mRNA, % UTC” value [11] was 35 % UTC. It also gave an IC50 [12] of 500 nM.

With “958562 (k[5mC]*kA*kT*dT*dG*dA*dA*dA*dG*dA*d[5mC]*d[5mC]*d[5mC]*kT*kT*kA; antisense) [compound 958562]” the “Yap1 mRNA, % UTC” value [17] was 105 % UTC, the “Yap1 mRNA, % UTC” value [18] was 95 % UTC and the “Yap1 mRNA, % UTC” value [19] was 28 % UTC. For the same substance, the IC50 [20] was 400 nM.

For “958563 (kA*kG*k[5mC]*dT*dT*dT*dT*dG*d[5mC]*d[5mC]*dA*dG*dG*kA*kG*kA; antisense) [compound 958563]”, the “Yap1 mRNA, % UTC” value [17] was 94 % UTC, the “Yap1 mRNA, % UTC” value [18] was 54 % UTC and the “Yap1 mRNA, % UTC” value [19] was 10 % UTC. It also gave an IC50 [20] of 100 nM.

In the case of “958565 (kT*kT*kG*dA*dG*d[5mC]*dA*d[5mC]*dT*dG*dA*dA*dA*kG*kT*kA; antisense) [compound 958565]”, the “Yap1 mRNA, % UTC” value [1] is reported as 83 % UTC, the “Yap1 mRNA, % UTC” value [2] is reported as 62 % UTC and the “Yap1 mRNA, % UTC” value [3] is reported as 13 % UTC. For the same substance, the IC50 [4] was 100 nM.

For “958567 (kT*k[5mC]*kA*dA*d[5mC]*d[5mC]*dT*dA*dT*dG*dA*dA*d[5mC]*kT*kA*kT; antisense) [compound 958567]”, the “Yap1 mRNA, % UTC” value [5] was 99 % UTC, the “Yap1 mRNA, % UTC” value [6] was 80 % UTC and the “Yap1 mRNA, % UTC” value [7] was 16 % UTC. It also gave an IC50 [8] of 200 nM.

“958568 (kT*kA*kT*dG*dA*dG*dT*dG*dA*dT*d[5mC]*dA*dA*k[5mC]*k[5mC]*kT; antisense) [compound 958568]” was tested, and the “Yap1 mRNA, % UTC” value [9] was 88 % UTC, the “Yap1 mRNA, % UTC” value [10] was 65 % UTC and the “Yap1 mRNA, % UTC” value [11] was 21 % UTC. The IC50 [12] was 100 nM.

In the case of “958569 (kA*kG*k[5mC]*d[5mC]*dT*dT*dA*dG*dA*dG*dT*d[5mC]*dA*kA*kT*kT; antisense) [compound 958569]”, the “Yap1 mRNA, % UTC” value (Table 61, 15.6 nM, A-431 cells 10,000 cells per well, 48 hours) is reported as 82 % UTC, the “Yap1 mRNA, % UTC” value (Table 61, 62.5 nM, A-431 cells 10,000 cells per well, 48 hours) is reported as 49 % UTC and the “Yap1 mRNA, % UTC” value (Table 61, 4000.00 nM, A-431 cells 10,000 cells per well, 48 hours) is reported as 7 % UTC. The IC50 (Table 61, A-431 cells 10,000 cells per well) was 100 nM.

“958570 (kT*kG*kT*dA*dA*dT*dT*d[5mC]*dA*dT*dA*dT*dA*k[5mC]*k[5mC]*k[5mC]; antisense) [compound 958570]” was tested, and the “Yap1 mRNA, % UTC” value [1] was 93 % UTC, the “Yap1 mRNA, % UTC” value [2] was 60 % UTC and the “Yap1 mRNA, % UTC” value [3] was 17 % UTC. For the same substance, the IC50 [4] was 100 nM.
